| Structure (SMILES) | melting point |
| --- | --- |
| C[C@]1(COC(=O)N2CCc3cc(Cl)ccc32)Cn2cc([N+](=O)[O-])nc2O1 | 189 to 191 °C |
| CC(C)(C)OC(=O)N1CCN(c2ccc(OCC3(C)Cn4cc([N+](=O)[O-])nc4O3)cc2)CC1 (stereo not shown) | 212 to 214.5 °C |
| C[C@]1(COc2ccc(N3CCSCC3)cc2)Cn2cc([N+](=O)[O-])nc2O1 | 227.5 to 229 °C |
| O=C(Nc1ccc(F)cc1)N1CCC2(CC1)Cn1cc([N+](=O)[O-])nc1O2 | 238 to 240 °C (dec.) |
| C[C@]1(CN2CCC(N3CCN(C(=O)c4ccc(Cl)cc4)CC3)CC2)Cn2cc([N+](=O)[O-])nc2O1 | 174 to 175 °C |
| C[C@]1(CN2CCN(C3CCN(Cc4ccc(Cl)cc4)CC3)CC2)Cn2cc([N+](=O)[O-])nc2O1 | 168 to 169 °C |
| C[C@]1(CN2CCN(C3CCN(C(=O)c4ccc(Cl)cc4)CC3)CC2)Cn2cc([N+](=O)[O-])nc2O1 | 218 to 220 °C |
| CC(C)(C)OC(=O)N1CCC(N2CCN(C[C@@]3(C)Cn4cc([N+](=O)[O-])nc4O3)CC2)CC1 | 181 to 182 °C |
| C[C@]1(CN2CCN(C3CCN(CC=Cc4ccc(OC(F)(F)F)cc4)CC3)CC2)Cn2cc([N+](=O)[O-])nc2O1 | 157 to 158 °C |
| C[C@]1(COc2ccc(C3CCN(C(=O)OCc4ccc(OC(F)(F)F)cc4)CC3)cc2)Cn2cc([N+](=O)[O-])nc2O1 | 202.5 to 204 °C |
| C[C@]1(COc2ccc(N3CC[S+]([O-])CC3)cc2)Cn2cc([N+](=O)[O-])nc2O1 | 198 to 200 °C |
| CN(CCN1CCN(c2ccc(C(F)(F)F)cc2)CC1)C[C@@]1(C)Cn2cc([N+](=O)[O-])nc2O1 | 148 to 150.5 °C |
| CN(Cc1cccc(Cl)c1)C[C@@]1(C)Cn2cc([N+](=O)[O-])nc2O1 | 177.5 to 178.5 °C |
| CC1(CN2CCC(OCc3ccc(Cl)cc3)CC2)Cn2cc([N+](=O)[O-])nc2O1 (stereo not shown) | 129 to 130 °C |
| C[C@]1(CN2CCC(c3ccccc3)CC2)Cn2cc([N+](=O)[O-])nc2O1 | 158.8 to 163.9 °C |
| C[C@]1(CN2CCC(OCC=Cc3ccc(Cl)cc3)CC2)Cn2cc([N+](=O)[O-])nc2O1 | 140.6 to 142.8 °C |
| C[C@]1(CN2CCC(NC(=O)OCc3ccc(C(F)(F)F)cc3)CC2)Cn2cc([N+](=O)[O-])nc2O1 | 141.2 to 144 °C |
| C[C@]1(CN2CCC(NCc3ccc(C(F)(F)F)cc3)CC2)Cn2cc([N+](=O)[O-])nc2O1 | 148.6 to 152.9 °C |
| CC1(CN2CCN(C(=O)Cc3ccc(C(F)(F)F)cc3)CC2)Cn2cc([N+](=O)[O-])nc2O1 (stereo not shown) | 168 to 171.4 °C |
| CCCCCCCCOC(=O)N1CCN(CC2(C)Cn3cc([N+](=O)[O-])nc3O2)CC1 (stereo not shown) | 138 to 139.4 °C |
| CC1(CN2CCN(C(=S)Nc3ccc(Cl)cc3)CC2)Cn2cc([N+](=O)[O-])nc2O1 (stereo not shown) | 204 to 206 °C (dec.) |
| COc1ccc(NC(=S)N2CCN(CC3(C)Cn4cc([N+](=O)[O-])nc4O3)CC2)cc1 (stereo not shown) | 189 to 191 °C (dec.) |
| O=[N+]([O-])c1cn2c(n1)O[C@@H](CN1CCN(c3ccc(Cl)cc3)CC1)C2 | 183 to 183.5 °C |
| C[C@]1(CN2CCN(C(=O)OCC=Cc3ccc(OC(F)(F)F)cc3)CC2)Cn2cc([N+](=O)[O-])nc2O1 | 91 to 93 °C |
| C[C@]1(CN2CCN(Cc3ccc(-c4ccccc4)cc3)CC2)Cn2cc([N+](=O)[O-])nc2O1 | 182 to 184 °C |
| CC1(CN2CCN(C(=O)c3ccc(C(F)(F)F)cc3)CC2)Cn2cc([N+](=O)[O-])nc2O1 (stereo not shown) | 161 to 162 °C |
| C[C@]1(CN2CCN(C(=O)CCCc3ccc(Cl)cc3)CC2)Cn2cc([N+](=O)[O-])nc2O1 | 146 to 147 °C |
| CC1(CN2CCN(S(=O)(=O)Cc3ccc(Cl)cc3)CC2)Cn2cc([N+](=O)[O-])nc2O1 (stereo not shown) | 215 to 217 °C |

| Structure (SMILES) | melting point |
| --- | --- |
| C[C@]1(CN2CCN(S(=O)(=O)CCc3ccc(Cl)cc3)CC2)Cn2cc([N+](=O)[O-])nc2O1 | 192 to 193 °C |
| C[C@]1(CN2CCN(S(=O)(=O)c3ccc(Cl)cc3)CC2)Cn2cc([N+](=O)[O-])nc2O1 | 216 to 218 °C |
| O=C(OCc1ccc(C(F)(F)F)cc1)N1CCN(C[C@H]2Cn3cc([N+](=O)[O-])nc3O2)CC1 | 125 to 125.5 °C |
| CN1C(=O)C(C)(C)c2cc(COC(=O)N3CCN(C[C@@]4(C)Cn5cc([N+](=O)[O-])nc5O4)CC3)ccc21 | 80 to 100 °C (dec.) |
| CC1(CN2CCN(C(=O)Nc3ccc(C(F)(F)F)cc3)CC2)Cn2cc([N+](=O)[O-])nc2O1 (stereo not shown) | 216 to 217 °C |
| C[C@]1(CN2CCN(C(=O)NC3CCCCC3)CC2)Cn2cc([N+](=O)[O-])nc2O1 | 98 to 101 °C |
| C[C@]1(CN2CCN(C(=O)N3CC=C(c4ccc(Cl)cc4)CC3)CC2)Cn2cc([N+](=O)[O-])nc2O1 | 161 to 162 °C |
| C[C@]1(CN2CCN(c3ccc(C(=O)O)cc3)CC2)Cn2cc([N+](=O)[O-])nc2O1 | 248 to 252 °C |
| C[C@]1(CN2CCN(c3cc(-c4ccccc4)nc(-c4ccccc4)n3)CC2)Cn2cc([N+](=O)[O-])nc2O1 | 202.5 to 205.4 °C |
| C[C@]1(CN2CCN(c3nc(-c4ccccc4)cc(-c4ccccc4)n3)CC2)Cn2cc([N+](=O)[O-])nc2O1 | 201.2 to 205.4 °C |
| CC1(CN2CCN(N=Cc3ccc(OC(F)(F)F)cc3)CC2)Cn2cc([N+](=O)[O-])nc2O1 (stereo not shown) | 189.2 to 190.9 °C |
| CC(=NN1CCN(C[C@@]2(C)Cn3cc([N+](=O)[O-])nc3O2)CC1)c1ccc(Cl)cc1 | 164.6 to 166.5 °C |
| C[C@]1(CN2CCN(N=C3CCCCC3)CC2)Cn2cc([N+](=O)[O-])nc2O1 | 178.6 to 179.3 °C |
| CC1(Cn2c(=O)oc3ccc(Cl)cc32)Cn2cc([N+](=O)[O-])nc2O1 (stereo not shown) | 207.6 to 207.9 °C |
| CC1(Cn2c(=O)oc3ccc(F)cc32)Cn2cc([N+](=O)[O-])nc2O1 (stereo not shown) | 246.2 to 246.8 °C |
| Cn1c(=O)n(CC2(C)Cn3cc([N+](=O)[O-])nc3O2)c2cc(F)ccc21 (stereo not shown) | 244.2 to 249.8 °C (dec.) |
| CCn1c(=O)n(CC2(C)Cn3cc([N+](=O)[O-])nc3O2)c2cc(Cl)ccc21 (stereo not shown) | 240.9 to 245.6 °C |
| CCn1nnnc1CCC1(C)Cn2cc([N+](=O)[O-])nc2O1 (stereo not shown) | 135 to 137 °C |
| CC1(c2cccnc2)Cn2cc([N+](=O)[O-])nc2O1 (stereo not shown) | 212 to 214 °C |
| CC1(CCN2CCN(C(C)(C)C)C(=O)C2)Cn2cc([N+](=O)[O-])nc2O1 (stereo not shown) | 153 to 154 °C |
| CC1(CN2CCCN(Cc3ccc(-c4ccccc4)cc3)CC2)Cn2cc([N+](=O)[O-])nc2O1 (stereo not shown) | 138 to 142.2 °C |
| O=C(Cc1ccc(C(F)(F)F)cc1)N1CCC2(CC1)Cn1cc([N+](=O)[O-])nc1O2 | 185 to 187 °C |
| O=C(OCc1ccc(C(F)(F)F)cc1)N1CCC2(CC1)Cn1cc([N+](=O)[O-])nc1O2 | 189 to 190 °C |
| O=C(CN1CCC2(CC1)Cn1cc([N+](=O)[O-])nc1O2)N1CCN(Cc2ccc(C(F)(F)F)cc2)CC1 | 195 to 197 °C (dec.) |
| O=C(CN1CCN(CC(=O)N2CCC3(CC2)Cn2cc([N+](=O)[O-])nc2O3)CC1)Nc1ccc(C(F)(F)F)cc1 | 133 to 135 °C |
| CNC(=O)OC[C@@]1(C)Cn2cc([N+](=O)[O-])nc2O1 | 175 to 178 °C |
| CC1(COC(=O)N2CC=C(c3ccc(C(F)(F)F)cc3)CC2)Cn2cc([N+](=O)[O-])nc2O1 (stereo not shown) | 113 to 115 °C |
